Laboratory results published in PubChem BioAssay (NCI).
“And” between values parts separate entries of the source, which are not always exact repeats. Equal entries are not always repeated.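 Five compound concentrations were applied to cells in 96-well plates for 48 hours; endpoints were derived by simple linear interpolation of the resulting dose-response curve. The concentration for 50% growth inhibition is given as GI50. TGI marks complete inhibition of growth.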

Key:
Assay in all cases: inhibition of tumour cell growth, NCI panel, 48 h
SW-620 colon = system: SW-620 colon
COLO 205 colon = system: COLO 205 colon
SK-MEL-2 melanoma = system: SK-MEL-2 melanoma
UO-31 renal = system: UO-31 renal
NCI-H23 lung = system: NCI-H23 lung
NCI-H522 lung = system: NCI-H522 lung
IGROV1 ovarian = system: IGROV1 ovarian
SN12C renal = system: SN12C renal
MALME-3M melanoma = system: MALME-3M melanoma
HCC-2998 colon = system: HCC-2998 colon

Compound | TGI (SW-620 colon) | TGI (COLO 205 colon) | TGI (SK-MEL-2 melanoma) | TGI (UO-31 renal) | TGI (NCI-H23 lung) | TGI (NCI-H522 lung) | TGI (IGROV1 ovarian) | TGI (SN12C renal) | TGI (MALME-3M melanoma) | GI50 (UO-31 renal) | GI50 (HCC-2998 colon) | TGI (HCC-2998 colon) | GI50 (NCI-H23 lung) | GI50 (IGROV1 ovarian) | GI50 (SN12C renal) | GI50 (MALME-3M melanoma) | GI50 (SW-620 colon) | GI50 (COLO 205 colon) | GI50 (SK-MEL-2 melanoma) | GI50 (NCI-H522 lung)
O=C(CC/C(CC(=O)c1ccc(Cl)cc1)=N/O)Nc1ccc(Cl)c(Cl)c1 | > 100 µM | > 100 µM | > 100 µM | > 100 µM | > 100 µM | > 100 µM | > 100 µM | > 100 µM | > 100 µM | – | – | – | – | – | – | – | – | – | – | –
N#CCCN(CCC#N)c1ccc(/C=N\c2nc(-c3ccccc3)cs2)cc1 | > 100 µM | > 100 µM | > 100 µM | > 100 µM | > 100 µM | > 100 µM | > 100 µM | > 100 µM | > 100 µM | – | – | – | – | – | – | – | – | – | – | –
CCCCCCCCCCCCSC(=NC)NC | – | – | – | 5.64 µM | 4.71 µM | – | 5.83 µM | 7.69 µM | 3.97 µM | 2.11 µM | 1.6 µM | 3.03 µM | 2.2 µM | 2.52 µM | 2.67 µM | 2.04 µM | – | – | – | –
Cn1c(=O)c2[nH]c(C3CC(=O)CC(c4nc5c([nH]4)c(=O)n(C)c(=O)n5C)N3)nc2n(C)c1=O (centres undefined) | > 100 µM | > 100 µM | > 100 µM | > 100 µM | > 100 µM | > 100 µM | > 100 µM | > 100 µM | > 100 µM | – | – | – | – | – | – | – | – | – | – | –
COc1ccc(Cn2cc3c(c2-c2ccc(O)cc2)CCc2cnoc2-3)cc1 | 15.9 µM | 2.01 µM | 20.2 µM | 18.7 µM | 17.8 µM | 0.596 µM | 23.6 µM | 23.2 µM | – | 0.653 µM | 0.602 µM | 12.9 µM | 0.461 µM | 0.578 µM | 1.16 µM | – | 0.295 µM | 0.577 µM | 0.379 µM | 0.0822 µM
N#CCc1ccc(/C(C#N)=C2/OC(=N)C(c3ccc(CC#N)cc3)C2=O)cc1 (centres undefined) | > 100 µM | > 100 µM | > 100 µM | > 100 µM | > 100 µM | > 100 µM | > 100 µM | > 100 µM | > 100 µM | – | – | – | – | – | – | – | – | – | – | –
Cc1ccc(-c2nc3c(C(=O)NCCN(C)C)cccc3[nH]2)cc1 | 28.6 µM | 20.4 µM | 32.8 µM | 22.9 µM | 30.3 µM | – | 41.9 µM | 63.5 µM | – | – | – | 29.4 µM | – | – | – | – | – | – | – | –
O=C(Nc1ccc([N+](=O)[O-])cc1C(=O)O)c1ccc([N+](=O)[O-])cc1 | > 100 µM | – | 92.2 µM | > 100 µM | – | – | > 100 µM | > 100 µM | > 100 µM | – | – | > 100 µM | – | – | – | – | – | – | – | –
COCOCc1cc(OCc2ccccc2)c(OC)cc1Br | > 100 µM | > 100 µM | > 100 µM | – | > 100 µM | – | > 100 µM | > 100 µM | > 100 µM | – | – | – | – | – | – | – | – | – | – | –
Cc1nc(N)sc1N=Nc1cc(Cl)c([N+](=O)[O-])cc1Cl | 35.8 µM | > 100 µM | 60 µM | 66.9 µM | – | 35.5 µM | 47.2 µM | 56.1 µM | 32.7 µM | – | – | – | – | – | – | – | – | – | – | –
O=C1CCCC(=O)C1=C(O)CCCCCCCCCCc1ccccc1 | > 100 µM | 31.8 µM | 49.1 µM | 60.1 µM | > 100 µM | 82.2 µM | > 100 µM | > 100 µM | – | – | – | > 100 µM | – | – | – | – | – | – | – | –
CN(C)CC(C)(C)C(/C=C/c1ccccc1)=N\Nc1ccccc1 | 10.4 µM | 11.3 µM | 31 µM | 0.843 µM | 23.5 µM | 23.9 µM | 17.9 µM | 17.6 µM | 26.6 µM | – | – | – | – | – | – | – | – | – | – | –
CCN(CC)CCC(=O)N1CCc2c([nH]c3ccccc23)C1c1cccnc1 (centres undefined) | > 100 µM | – | – | > 100 µM | > 100 µM | > 100 µM | > 100 µM | > 100 µM | – | – | – | > 100 µM | – | – | – | – | – | – | – | –
CC(=O)c1c(O)ccc2c(C)c(C(=O)O)oc12 | > 100 µM | > 100 µM | – | > 100 µM | > 100 µM | > 100 µM | > 100 µM | – | > 100 µM | > 100 µM | 55.8 µM | > 100 µM | > 100 µM | > 100 µM | – | > 100 µM | > 100 µM | > 100 µM | – | > 100 µM
Cn1cnc([N+](=O)[O-])c1Sc1nc2cccnc2s1 | 26.6 µM | 22.7 µM | – | 34.1 µM | – | – | 33 µM | 33.5 µM | 22 µM | – | – | 30.9 µM | – | – | – | – | – | – | – | –
COc1cc(C(=O)/C=C/c2c(-c3ccc(F)cc3)nc3ncccn23)cc(OC)c1OC | – | – | 6.97 µM | > 100 µM | 5.79 µM | 10.6 µM | 9.53 µM | 36.1 µM | 58 µM | 0.73 µM | 1.77 µM | 3.42 µM | 1.58 µM | 1.93 µM | 2.26 µM | 2.84 µM | – | – | 2.38 µM | 2.87 µM
COc1ccc(NC(=O)COC(=O)c2cccc3c(=O)c4ccccc4[nH]c23)cc1 | 60.1 µM | 33.3 µM | – | 36.4 µM | 32 µM | 38.5 µM | 91.3 µM | 92.8 µM | 50.2 µM | – | – | > 100 µM | – | – | – | – | – | – | – | –
O=C1c2cccc3cccc(c23)C(=O)N1CCCCN1CCN(CCCCOc2ccc(-c3nc4ccc(N5CCOCC5)cc4[nH]3)cc2)CC1 | > 100 µM | > 100 µM | > 100 µM | > 100 µM | > 100 µM | > 100 µM | > 100 µM | – | > 100 µM | > 100 µM | > 100 µM | > 100 µM | > 100 µM | 61.9 µM | – | 29.5 µM | > 100 µM | > 100 µM | > 100 µM | > 100 µM
CN1C(=O)c2cc([N+](=O)[O-])ccc2[C@H]2C(=O)c3cc4c(cc3[C@H]21)OCO4 | > 100 µM | > 61.2 µM | > 45.8 µM | 1.51 µM | 0.796 µM | 9.42 µM | 12 µM | 0.838 µM | – | 0.0409 µM | – | – | 0.21 µM | 0.153 µM | 0.0386 µM | – | 0.0481 µM | 0.225 µM | 1.91 µM | < 0.0179 µM
O=C1Nc2ccccc2/C1=C/c1ccccc1 | > 100 µM | 30.9 µM | 28.5 µM | 25.3 µM | 42.7 µM | 33.9 µM | 33.1 µM | 28.5 µM | – | – | – | 30.1 µM | – | – | – | – | – | – | – | –
Cc1ccc(NC(=O)COC(=O)c2cccc3c(=O)c4ccccc4[nH]c23)cc1 | > 100 µM | 77.9 µM | – | 42.9 µM | 74.3 µM | 59.9 µM | > 100 µM | > 100 µM | > 100 µM | – | – | > 100 µM | – | – | – | – | – | – | – | –
CCCC(=O)Nc1cc([N+](=O)[O-])c([N+](=O)[O-])cc1OC | 89.9 µM | 30.9 µM | 41.6 µM | 3.13 µM | 34.4 µM | 27.6 µM | 38.9 µM | 29.5 µM | – | – | – | – | – | – | – | – | – | – | – | –
S=P1(c2ccccc2)Nc2ccc(Cl)cc2N1 (centres undefined) | > 100 µM | 45.5 µM | > 100 µM | > 100 µM | > 100 µM | > 100 µM | > 100 µM | – | > 100 µM | – | – | > 100 µM | – | – | – | – | – | – | – | –
COc1ccc2cc3[n+](cc2c1OC)CCc1cc2c(cc1-3)OCO2 | > 100 µM and > 73.8 µM and 170 µM | 33.3 µM [middle of 5 runs] | – | – | – | – | > 100 µM and 137 µM | > 100 µM and 75.2 µM and 81 µM | 27.8 µM [middle of 5 runs] | – | – | – | 6.34 µM | 18.4 µM | – | 2.24 µM and 5.1 µM | 14.8 µM and 25.2 µM | 7.46 µM [middle of 5 runs] | 11.4 µM and 17.5 µM | –
COC(=O)c1cc2c3ccccc3n3c(=O)c4cc5cc(OC)c(N(S(=O)(=O)c6ccc(C)cc6)S(=O)(=O)c6ccc(C)cc6)cc5nc4c(n1)c23 | > 100 µM | > 100 µM | – | – | 63.2 µM | – | – | > 100 µM | > 100 µM | – | > 100 µM | > 100 µM | 16.7 µM | – | 95.7 µM | > 100 µM | > 100 µM | > 100 µM | – | –
O=C1Nc2ccccc2/C1=C/c1cn(C(=O)c2c(Cl)cccc2Cl)c2ccccc12 | 12.5 µM | 22.2 µM | – | 7.5 µM | 17.3 µM | 17.5 µM | – | 19.3 µM | 14.9 µM | 1.14 µM | 6.03 µM | 19.6 µM | 4.08 µM | – | 4 µM | 2.61 µM | 2.9 µM | 7.52 µM | – | 4.22 µM
COc1cc(C2CC(c3ccc(Nc4ccnc5cc(Cl)ccc45)cc3)=NN2C=O)cc(OC)c1OC (centres undefined) | 17.7 µM | 70.4 µM | – | 21.3 µM | > 100 µM | – | > 100 µM | 42.4 µM | 8.32 µM | 4.96 µM | 5.52 µM | > 100 µM | 20.4 µM | 22.3 µM | 4.37 µM | 3.2 µM | 3.49 µM | 3.73 µM | – | –
CN(C)c1ccc(/C=C/c2ccnc3ccccc23)cc1N | 33.3 µM | 19.6 µM | 21.3 µM | 20.2 µM | 21.8 µM | – | – | 34.4 µM | 28.8 µM | – | – | 25.3 µM | – | – | – | – | – | – | – | –
COc1ccc(N(C)c2nc(Cl)nc3ccn(C)c23)cc1 | > 100 µM | < 0.01 µM | – | > 100 µM | > 100 µM | < 0.01 µM | > 100 µM | > 100 µM | > 100 µM | 0.139 µM | < 0.01 µM | > 100 µM | < 0.01 µM | < 0.01 µM | < 0.01 µM | > 100 µM | < 0.01 µM | < 0.01 µM | – | < 0.01 µM
